From US20110086759A1, “CHEMICAL COMPOUNDS” (SYNGENTA CROP PROTECTION, INC., priority 2007, published 2011)

What was measured:
Type in all cases: in vivo
[1] = system: Echinochloa crus-galli (ECHCG); assay: Post-emergence biological efficacy, glasshouse pot test; details: 312 h, post-emergence, 1,000 g/ha, evaluated after 13 days (100=total damage; 0=no damage), read-out: Percentage damage caused to weed species, ECHCG
Experimental: (§1) Seeds of Alopecurus myosuroides (ALOMY), Setaria faberi (SETFA), Echinochloa crus-galli (ECHCG), Solanum nigrum (SOLNI), Amaranthus retoflexus (AMARE) and Ipomea hederaceae (IPOHE) were sown in standard soil in pots. After cultivation for 8 days under controlled conditions in a glasshouse (at 24/16° C., day/night; 14 hours light; 65% humidity), the plants were sprayed with an aqueous spray solution derived from the formulation of the technical active ingredient in acetone/water (50:50) solution containing 0.5% Tween 20 (polyoxyethelyene sorbitan monolaurate, CAS RN 9005-64-5) to give a final dose of 1000 or 250 g/ha of test compound.
(§2) The test plants were then grown on under controlled conditions in a glasshouse (at 24/16° C., day/night; 14 hours light; 65% humidity) and watered twice daily. After 13 days the test was evaluated (100=total damage to plant; 0=no damage to plant).

[2] = system: Alopecurus myosuroides (ALOMY); assay: as above; details: 312 h, post-emergence, 1,000 g/ha, evaluated after 13 days (100=total damage; 0=no damage), read-out: Percentage damage caused to weed species, ALOMY
Experimental: as §1, §2

[3] = system: Amaranthus retoflexus (AMARE); assay: as above; details: Amaranthus retroflexus, 312 h; post-emergence, 1,000 g/ha, evaluated after 13 days (100=total damage; 0=no damage); read-out: Percentage damage caused to weed species, AMARE
Experimental: as §1, §2

[4] = system: Solanum nigrum (SOLNI); assay: as above; details: 312 h, post-emergence, 1,000 g/ha, evaluated after 13 days (100=total damage; 0=no damage), read-out: Percentage damage caused to weed species, SOLNI
Experimental: as §1, §2

[5] = system: Ipomea hederaceae (IPOHE); assay: as above; details: Ipomoea hederacea, 312 h; post-emergence, 1,000 g/ha, evaluated after 13 days (100=total damage; 0=no damage); read-out: Percentage damage caused to weed species, IPOHE
Experimental: as §1, §2

[6] = system: Setaria faberi (SETFA); assay: as above; details: 312 h, post-emergence, 1,000 g/ha, evaluated after 13 days (100=total damage; 0=no damage), read-out: Percentage damage caused to weed species, SETFA
Experimental: as §1, §2

[7] = system: Echinochloa crus-galli (ECHCG); assay: Pre-emergence biological efficacy, glasshouse pot test; details: 312 h, pre-emergence, 1,000 g/ha, evaluated after 13 days (100=total damage; 0=no damage), read-out: Percentage damage ECHCG
In short: (§3)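 Standard soil, pots, sown then sprayed at day 1 with 1000 or 250 g/ha test compound. Glasshouse: 24/16 °C, 14 h photoperiod, 65% humidity, twice-daily watering. Evaluation day 13, 0–100 damage score.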

[8] = system: Alopecurus myosuroides (ALOMY); assay: as above; details: 312 h, pre-emergence, 1,000 g/ha, evaluated after 13 days (100=total damage; 0=no damage), read-out: Percentage damage ALOMY
In short: as §3

[9] = system: Amaranthus retoflexus (AMARE); assay: as above; details: Amaranthus retroflexus, 312 h; pre-emergence, 1,000 g/ha, evaluated after 13 days (100=total damage; 0=no damage); read-out: Percentage damage AMARE
In short: as §3

[10] = system: Solanum nigrum (SOLNI); assay: as above; details: 312 h, pre-emergence, 1,000 g/ha, evaluated after 13 days (100=total damage; 0=no damage), read-out: Percentage damage SOLNI
In short: as §3

[11] = system: Ipomea hederaceae (IPOHE); assay: as above; details: Ipomoea hederacea, 312 h; pre-emergence, 1,000 g/ha, evaluated after 13 days (100=total damage; 0=no damage); read-out: Percentage damage IPOHE
In short: as §3

[12] = system: Setaria faberi (SETFA); assay: as above; details: 312 h, pre-emergence, 1,000 g/ha, evaluated after 13 days (100=total damage; 0=no damage), read-out: Percentage damage SETFA
In short: as §3

Structure (SMILES): O=C(O)c1nc(C2CC2)nc(NC2CC2)c1Cl [Compound 1-1, 5-Chloro-2-cyclopropyl-4-cyclopropylamino-pyrimidine-6-carboxylic acid]
- pest or weed control at 1000 g/ha [1]: 40%
- pest or weed control at 1000 g/ha [2]: 40%
- pest or weed control at 1000 g/ha [3]: 100%
- pest or weed control at 1000 g/ha [4]: 90%
- pest or weed control at 1000 g/ha [5]: 80%
- pest or weed control at 1000 g/ha [6]: 80%
- pest or weed control at 1000 g/ha [7]: 20%
- pest or weed control at 1000 g/ha [8]: 20%
- pest or weed control at 1000 g/ha [9]: 100%
- pest or weed control at 1000 g/ha [10]: 90%
- pest or weed control at 1000 g/ha [11]: 90%
- pest or weed control at 1000 g/ha [12]: 0%

Structure (SMILES): O=C(O)c1nc(C2CC2)nc(NC2CCCC2)c1Cl [Compound 1-33, 5-Chloro-2-cyclopropyl-4-cyclopentylamino-pyrimidine-6-carboxylic acid]
- pest or weed control at 1000 g/ha [1]: 20%
- pest or weed control at 1000 g/ha [2]: 30%
- pest or weed control at 1000 g/ha [3]: 100%
- pest or weed control at 1000 g/ha [4]: 80%
- pest or weed control at 1000 g/ha [5]: 70%
- pest or weed control at 1000 g/ha [6]: 80%
- pest or weed control at 1000 g/ha [7]: 30%
- pest or weed control at 1000 g/ha [8]: 30%
- pest or weed control at 1000 g/ha [9]: 80%
- pest or weed control at 1000 g/ha [10]: 80%
- pest or weed control at 1000 g/ha [11]: 70%
- pest or weed control at 1000 g/ha [12]: 50%

Structure (SMILES): O=C(O)c1nc(C2CC2)nc(NC2CCCCC2)c1Cl [Compound 1-35, 5-Chloro-4-cyclohexylamino-2-cyclopropyl-pyrimidine-6-carboxylic acid]
- pest or weed control at 1000 g/ha [1]: 10%
- pest or weed control at 1000 g/ha [2]: 10%
- pest or weed control at 1000 g/ha [3]: 50%
- pest or weed control at 1000 g/ha [4]: 30%
- pest or weed control at 1000 g/ha [5]: 50%
- pest or weed control at 1000 g/ha [6]: 0%
- pest or weed control at 1000 g/ha [7]: 10%
- pest or weed control at 1000 g/ha [8]: 10%
- pest or weed control at 1000 g/ha [9]: 50%
- pest or weed control at 1000 g/ha [10]: 20%
- pest or weed control at 1000 g/ha [11]: 0%
- pest or weed control at 1000 g/ha [12]: 0%

Structure (SMILES): O=C(O)c1nc(C2CC2)nc(NCc2ccccc2)c1Cl [Compound 1-60, 5-Chloro-2-cyclopropyl-4-phenylmethyamino pyrimidtne-6-carboxylic acid]
- pest or weed control at 1000 g/ha [1]: 70%
- pest or weed control at 1000 g/ha [2]: 50%
- pest or weed control at 1000 g/ha [3]: 100%
- pest or weed control at 1000 g/ha [4]: 90%
- pest or weed control at 1000 g/ha [5]: 100%
- pest or weed control at 1000 g/ha [6]: 90%
- pest or weed control at 1000 g/ha [7]: 20%
- pest or weed control at 1000 g/ha [8]: 20%
- pest or weed control at 1000 g/ha [9]: 90%
- pest or weed control at 1000 g/ha [10]: 90%
- pest or weed control at 1000 g/ha [11]: 100%
- pest or weed control at 1000 g/ha [12]: 0%

Structure (SMILES): O=C(O)c1nc(C2CC2)nc(NCc2ccc(F)cc2)c1Cl [Compound 1-66, 5-Chloro-2-cyclopropyl-4-(4-fluorophenylmethyl-amino)pyrimidine-6-carboxylic acid]
- pest or weed control at 1000 g/ha [1]: 50%
- pest or weed control at 1000 g/ha [2]: 10%
- pest or weed control at 1000 g/ha [3]: 100%
- pest or weed control at 1000 g/ha [4]: 90%
- pest or weed control at 1000 g/ha [5]: 80%
- pest or weed control at 1000 g/ha [6]: 80%
- pest or weed control at 1000 g/ha [7]: 10%
- pest or weed control at 1000 g/ha [8]: 10%
- pest or weed control at 1000 g/ha [9]: 50%
- pest or weed control at 1000 g/ha [10]: 60%
- pest or weed control at 1000 g/ha [11]: 90%
- pest or weed control at 1000 g/ha [12]: 10%

Structure (SMILES): Cc1ccc(CNc2nc(C3CC3)nc(C(=O)O)c2Cl)cc1 [Compound 1-73, 5-Chloro-2-cyclo-propyl-4-(4-methyl-phenylmethyl-amino)pyrimidine-6-carboxylic acid]
- pest or weed control at 1000 g/ha [1]: 30%
- pest or weed control at 1000 g/ha [2]: 10%
- pest or weed control at 1000 g/ha [3]: 100%
- pest or weed control at 1000 g/ha [4]: 80%
- pest or weed control at 1000 g/ha [5]: 80%
- pest or weed control at 1000 g/ha [6]: 50%
- pest or weed control at 1000 g/ha [7]: 10%
- pest or weed control at 1000 g/ha [8]: 10%
- pest or weed control at 1000 g/ha [9]: 70%
- pest or weed control at 1000 g/ha [10]: 80%
- pest or weed control at 1000 g/ha [11]: 60%
- pest or weed control at 1000 g/ha [12]: 30%
